# Laboratory results from US20220265700A1, “METHODS TO PREVENT, INHIBIT OR TREAT INTERVERTEBRAL DISC DEGENERATION” (University of Iowa Research Foundation, priority 2021, published 2022).
# Where two headings read alike, the source gives them in different places.
# Key:
# ERK = assay: Immunofluorescence staining of phosphorylated ERK; assay type: cell-based, rabbit
# JNK = assay: Immunofluorescence staining of phosphorylated JNK; assay type: cell-based, rabbit
# p38 = assay: Immunofluorescence staining of phosphorylated p38; assay type: cell-based, rabbit
# nucleus pulposus tissues = assay: DHE staining, ex vivo organ culture of transversely cut intervertebral discs; assay type: cell-based, rabbit; conditions: 10 mM NAC or […] amobarbital for 24 h after cutting
# Nrf2 [1] = assay: Nrf2 staining, ex vivo organ culture of transversely cut intervertebral discs; assay type: cell-based, rabbit; conditions: 10 mM NAC or […] amobarbital for 24 h after cutting
# nucleus pulposus (NP) = assay: DHE staining of IVDs exposed to 100 μM tBHP; assay type: cell-based, rabbit; conditions: 100 μM tBHP 30 minutes, then 10 mM NAC 24 hours
# SOD2 and Nrf2 = SOD2 and Nrf2 IHC staining of tBHP-exposed IVDs; assay type: cell-based, rabbit; conditions: 100 μM tBHP 30 minutes, then 10 mM NAC 24 hours
# nucleus pulposus cells [2] = conditions: for cell viability: normalized by control
# nucleus pulposus cells [3] = assay: Mitochondrial ROS production, MitoSOX Red; assay type: cell-based, rabbit
# NP cells = assay: TUNEL assay, ex vivo IVD puncture model; assay type: cell-based, rabbit; conditions: 7 days; Amo in hydrogel after disc puncture
# Text: Overall study design is illustrated in FIG. 15A. A total of 36 rabbit thoracic and lumbar motion segments (T11/L2) including two vertebral bodies and one IVD were obtained from New Zealand White (NZW) rabbit cadavers (approximately 10-months old) without radiographic evidence of trauma by X-ray. Under sterile conditions, the segments were dissected by removing the posterior elements and soft tissues. The discs were punctured using a 20-gauge needle with 3 mm-depth, and the needle was held in place for 5 seconds. Discal injury was confirmed by herniated nucleus pulposus (NP) through the needle hole. After the puncture, 5 μl hydrogel (17% F-127/0.425% HA) with or without 2.5 mM Amo was injected into the NP using a 30-gauge Hamilton syringe with a stopper (Thermo Fisher Scientific, Waltham, Mass., USA). […]
# Apoptotic cells in the NP were detected using a terminal deoxynucleotidyl transferase dUTP nick end labelling (TUNEL) assay (Abcam, Cambridge, Mass., USA) according to the manufacturer's instructions. […] Then, the sections were labeled with terminal transferase (TdT) enzyme for 1.5 h, detected with blocking buffer for 30 min, developed with working 3,3′-diaminobenzidine (DAB) solution for 15 min, and counterstained with methyl green for 1.5 min. After scanning images, the number of positive cells in each tissue was counted and normalized by the data from the 2-days intact group.
# [4] = Amo stability in HA hydrogel according to USP guidelines; assay type: physicochemical; conditions: mixed with Gel-One HA hydrogel, data not shown
# Text: Amo is primarily applied as a sedative-hypnotic to treat sleep disorder and as a preanesthetic agent.
# Nrf2 [5] = assay: Nrf2 staining in NP cells under tBHP-induced oxidative stress; conditions: pre-treated with […] amobarbital 2 h, then 50 μM tBHP 1 h
# nucleus pulposus cells [6] = assay: Mitochondrial membrane potential, JC-1 assay; assay type: cell-based, rabbit; conditions: 50 μM tBHP 1 h
# rabbit NP cells = assay type: cell-based; conditions: exposed to 100 μM tBHP
# nucleus pulposus cells [7] = conditions: 100 μM tBHP exposure
# [8] = tested on: human nucleus pulposus cells; conditions: 400 μM tBHP for 6 h (Xu et al. 2019); cited from earlier work
# [9] = tested on: rat nucleus pulposus cells; conditions: 100 μM tBHP for 24 h (2019 report); cited from earlier work
# [10] = 10 mM NAC, […] amobarbital or 20 μM inhibitor, 50 μM tBHP 1 h
compound,measurement,setting,value
"CC(=O)N[C@@H](CS)C(=O)O [NAC, N-acetylcysteine]",phosphorylation of ERK vs. tBHP,ERK; [10],inhibited the phosphorylation
same,phosphorylation of JNK vs. tBHP,JNK; [10],inhibited the phosphorylation
same,phosphorylation of p38 vs. tBHP,p38; [10],inhibited the phosphorylation
same,DHE dye oxidation (ROS) in injured NP tissues,nucleus pulposus tissues,dramatically reduced dye oxidation
same,Nrf2 expression in the cytosol compared with injured control group,Nrf2 [1],approximately 6.8 times
same,Nrf2 translocation to the nucleus after injury,Nrf2 [1],prevented
same,DHE positive cells compared with non-treated control,nucleus pulposus (NP),dramatic reduction
same,oxidative damage in NP cells by SOD2 and Nrf2 IHC staining,SOD2 and Nrf2,reduced oxidative damage
same,protective effect on cell viability (cell death),"nucleus pulposus cells [2]; 0.1-10 mM pre-treatment 2 h prior to 50 μM tBHP, until 24 h",significantly prohibited the cell death
same,concentration at which no cytotoxicity was exhibited,"nucleus pulposus cells [2]; New Zealand White, rabbit, 2 h",lower than 10 mM
COc1cccc(-c2cc(=O)c3ccccc3o2)c1N [PD98059],phosphorylation of ERK vs. tBHP,ERK,minimized the phosphorylation
C[S+]([O-])c1ccc(-c2nc(-c3ccncc3)c(-c3ccc(F)cc3)[nH]2)cc1 (stereo not shown) [SB203580],phosphorylation of JNK vs. tBHP,JNK,minimized the phosphorylation
CCC1(CCC(C)C)C(=O)NC(=O)NC1=O [amobarbital],MitoSOX-stained cells (imaging),nucleus pulposus cells [3],large decrease
same,phosphorylation of ERK vs. tBHP,ERK,inhibited the phosphorylation
same,phosphorylation of JNK vs. tBHP,JNK,inhibited the phosphorylation
same,phosphorylation of p38 vs. tBHP,p38,inhibited the phosphorylation
same,Nrf2 expression in the cytosol compared with injured control group,Nrf2 [1],~7.8 times
same,Nrf2 translocation to the nucleus after injury,Nrf2 [1],prevented
same,TUNEL-positive (apoptotic) NP cells vs. HG,NP cells,diminished number of cell apoptosis
same,Amo stability in hydrogel,[4],stability in human biologic fluids and various conditions
same,protective effect on cell viability (cell death),nucleus pulposus cells [2],significantly prohibited the cell death
same,Nrf2 expression in the cytosol of NP cells,Nrf2 [5],close to control
"CC(C)(C)OO [tBHP, tert-butyl hydrogen peroxide]",superoxide production (MitoSOX Red),nucleus pulposus cells [3]; 25 μM tBHP,no superoxide production was observed
same,ratio of J-aggregate form to monomeric form vs. control,nucleus pulposus cells [6],significantly reduced
same,phosphorylation of ERK vs. control,ERK; 50 μM tBHP 1 h,significantly phosphorylated
same,rate of phosphorylated JNK compared with control,JNK; 50 μM tBHP 1 h,approximately 5.9 times
same,rate of phosphorylated p38 compared with control,p38; 50 μM tBHP 1 h,~9.7 times
same,basal oxygen consumption rate (OCR),rabbit NP cells,increased
same,cell viability,"nucleus pulposus cells [2]; 25 μM tBHP, 1 h",90.8%
same,cell viability,"nucleus pulposus cells [2]; 50 μM tBHP, 1 h",77.1%
same,cell loss (viability),"nucleus pulposus cells [2]; 100-400 μM tBHP, 1 h",70.6-72.9%
same,apoptotic/necrotic cells after tBHP exposure,nucleus pulposus cells [7],became apoptotic and/or necrotic cells
same,viability,[8],54.3%
same,cell apoptosis relative to control,[9],approximately 7 times
